Source: patent US20080132505A1 (Glaxo Group Limited, priority 2004, published 2008)

Columns and labels:
[1] = target: human cannabinoid CB2 receptor (Homo sapiens, UniProt P34972); experiment: Cannabinoid CB2 receptor agonist activity (yeast reporter assay, FDGlu fluorescence); format: cell-based; conditions: for EC50: EC50 value at the cloned human cannabinoid CB2 receptor; for Emax: read-out: efficacy value (Emax relative to HU210) at the cloned human cannabinoid CB2 receptor
Summary of the method: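 Agonist-driven growth was read as fluorescein fluorescence (ex 485, em 535 nm) from FDGlu cleavage after 24 h at 30 °C, using yeast strain MMY23 carrying human CB2 and chimeric Gpa1/Gαi3. Medium had 10 mM 3-aminotriazole, pH 7.0; four-parameter fits gave EC50, with Emax and EMR versus HU210.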

[2] = Particle size analysis (Lecotrac laser particle size analyser) pre and post nanomilling; format: physicochemical
Method: 2.5 g of compound of example 176 was weighed into a 10 ml centrifuge tube. 25 ml of 0.3 mm yttrium zirconium (YTZ) ceramic milling beads (Manufacturer: Tosob, Japan; Supplier: Glen Creston Ltd., batch no. 5280130030)”) was weighed into a 50 ml milling pot. 22.5 ml of aqueous 1.5% HPMC was measured with a measuring cylinder into a 100 ml beaker. This solution was homogenised for 3 seconds with an Ultra Turrax T25 homogeniser. Approximately 200 mg of the 2.5 g of the compound was added to the HPMC solution and homogenised at the lowest speed setting until the powder was wetted. This was repeated until all the compound had been added. The speed of the homogeniser was then increased to maximum and the suspension was homogenised for a further 3 minutes. This suspension was allowed to stand for 30 minutes in order to allow some of the foam to disperse. The suspension was then poured into the 50 ml pot containing the YTZ milling beads, stirring to release any trapped air. The lid to the pot was then fitted and the pot sealed with some Nesco film. This procedure was repeated for a second 50 ml nanomilling pot and both pots were placed on a Retsch mill and milled for a total of 8 hours.
The milling pots were removed from the Retsch mill and left to cool and for the foam to disperse overnight. In the morning the suspension and bead mixture was passed through a 200μ, 40 mm diameter screen. The contents from each 50 ml pot was washed with aqueous 1.5% HPMC: 10% of the original suspension volume (i.e. 2.5 ml). The suspension from the 2 pots was combined to make 1 batch. The suspension obtained from the method above was named the concentrate.
A particle size analysis was carried out on the Lecotrac laser particle size analyser. The results are shown in Table B along with the results from the starting material for comparison:
Compounds of Examples 19, 34, 194, 217, 228, 247 were nanomilled on a 1 g scale using the process described above and the particle size analysed pre and post nanomilling.

[3] = Table B, after 8 hours milling in aqueous 1.5% HPMC, 2.5 g per pot
[4] = Table B, starting material before nanomilling, Lecotrac laser particle size analyser
[5] = Table C, after nanomilling, 1 g scale
[6] = Table C, before nanomilling, 1 g scale

Chain of human cannabinoid CB2 receptor (P34972 whole entry): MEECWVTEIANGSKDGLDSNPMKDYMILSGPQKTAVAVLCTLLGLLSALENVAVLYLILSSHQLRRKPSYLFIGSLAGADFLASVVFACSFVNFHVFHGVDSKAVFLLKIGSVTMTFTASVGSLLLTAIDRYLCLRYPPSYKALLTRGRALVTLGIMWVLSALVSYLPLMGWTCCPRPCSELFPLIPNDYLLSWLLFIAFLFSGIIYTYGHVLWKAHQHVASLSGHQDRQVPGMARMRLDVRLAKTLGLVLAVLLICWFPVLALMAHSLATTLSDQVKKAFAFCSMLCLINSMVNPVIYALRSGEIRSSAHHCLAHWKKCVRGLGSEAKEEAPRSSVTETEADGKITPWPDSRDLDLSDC

Row | Compound | EC50 [1] [nM] | Emax [1] [%] | Post-nanomilling 50% percentile [2, 3] [μ] | Post-nanomilling 95% percentile [2, 3] [μ] | Pre-nanomilling 50% percentile [2, 4] [μ] | Pre-nanomilling 95% percentile [2, 4] [μ] | Post-nanomilling 50% percentile [2, 5] [μ] | Post-nanomilling 95% percentile [2, 5] [μ] | Pre-nanomilling 50% percentile [2, 6] [μ] | Pre-nanomilling 95% percentile [2, 6] [μ]
1 | N#Cc1ccc(Nc2ncc(C(=O)NCC3CCCC3)c(C(F)(F)F)n2)cc1 [Example 176, 2-(4-Cyanophenylamino)-4-trifluoromethyl-pyrimidine-5-carboxylic acid cyclopentylmethyl-amide] | 20 to 300 | > 50 | 0.33 | 1.78 | 13.15 | 68.7 | – | – | – | –
2 | N#Cc1ccc(Nc2ncc(C(=O)NCC3CCOCC3)c(C(F)(F)F)n2)cc1Cl [Example 217, 2-(4-Cyano-3-chloro-phenylamino)-4-trifluoromethyl-pyrimidine-5-carboxylic acid (tetrahydro-pyran-4-ylmethyl)-amide] | 20 to 300 | > 50 | – | – | – | – | 0.34 | 1.30 | 5.70 | 34.9
3 | O=C(NCC1CCOCC1)c1cnc(Nc2ccc(Cl)cc2Cl)nc1C(F)(F)F [Example 34, 2-(2,4-Dichlorophenylamino)-4-trifluoromethylpyrimidine-5-carboxylic acid (tetrahydropyran-4-ylmethyl)-amide] | 20 to 300 | > 50 | – | – | – | – | 0.18 | 0.56 | 10.46 | 32.7
4 | O=C(NCC1CCCC1)c1cnc(Nc2ccc(F)c(Cl)c2)nc1C(F)(F)F [Example 247, 2-(3-Chloro-4-fluoro-phenylamino)-4-trifluoromethyl-pyrimidine-5-carboxylic acid cyclopentylmethyl-amide] | 20 to 300 | > 50 | – | – | – | – | 0.64 | 2.53 | 13.2 | 68.7
5 | O=C(NCC1CCC1)c1cnc(Nc2ccc(Cl)cc2F)nc1C(F)(F)F [Example 228, 2-(2-Fluoro-4-chloro-phenylamino)-4-trifluoromethyl-pyrimidine-5-carboxylic acid cyclobutylmethyl-amide] | 20 to 300 | > 50 | – | – | – | – | 0.44 | 1.69 | 4.65 | 47.1
6 | O=C(NCC1CCCCC1)c1cnc(Nc2cccc(F)c2)nc1C(F)(F)F [Example 19, 2-(3-Fluorophenylamino)-4-trifluoromethylpyrimidine-5-carboxylic acid cyclohexylmethyl-amide] | 20 to 300 | > 50 | – | – | – | – | 0.40 | 1.40 | 5.22 | 25.5
7 | O=C(NCC1CCC1)c1cnc(Nc2ccc(F)c(Cl)c2)nc1C(F)(F)F [Example 194, 2-(3-Chloro-4-fluorophenylamino)-4-trifluoromethyl-pyrimidine-5-carboxylic acid cyclobutylmethyl-amide] | 20 to 300 | > 50 | – | – | – | – | 0.56 | 1.97 | 6.78 | 33.7
8 | O=C(NCC1CCC1)c1cnc(Nc2ccc(C(F)(F)F)c(F)c2)nc1C(F)(F)F [Example 196, 2-(3-Fluoro-4-trifluoromethylphenylamino)-4-trifluoromethyl-pyrimidine-5-carboxylic acid cyclobutylmethyl-amide] | 20 to 300 | > 50 | – | – | – | – | – | – | – | –
9 | O=C(NC1CCCC1)c1cnc(Nc2cccc(Cl)c2Cl)nc1C(F)(F)F [Example 77, 2,3-Dichlorophenylamino-4-trifluoromethyl-pyrimidine-5-carboxylic acid cyclopentylamide] | 300 to 1000 | > 50 | – | – | – | – | – | – | – | –
10 | O=C(NC1CCS(=O)(=O)CC1)c1cnc(Nc2cccc(Cl)c2Cl)nc1C(F)(F)F [Example 82, 2-(2,3-Dichlorophenylamino)-4-trifluoromethyl-pyrimidine-5-carboxylic acid (1,1-dioxo-tetrahydro-2H-thiopyran-4-yl)-amide] | 300 to 1000 | > 50 | – | – | – | – | – | – | – | –
